Results published in ChEMBL document CHEMBL3137667, “[Drug-induced liver injury; fourteenth updated edition of the bibliographic database of liver injuries and related drugs]” (Gastroenterol Clin Biol, 2004).

Experiments:
[1] = Highest frequency of moderate liver toxicity observed during clinical trials, expressed as a percentage. [column '% BIOL' in source]; conditions: human
[2] = Highest frequency of acute liver toxicity observed during clinical trials, expressed as a percentage. [column '% AIGUE' in source]; conditions: human
[3] = human, serum
[4] = human, serum; remark: listed apart in the source
[5] = human
[6] = human; remark: listed apart in the source
[7] = human; remark: listed apart in the source
[8] = human, serum, 4383 h
[9] = human; remark: listed apart in the source
[10] = human; remark: listed apart in the source
[11] = human; remark: listed apart in the source
[12] = human; remark: listed apart in the source
[13] = human; remark: listed apart in the source
[14] = human; remark: listed apart in the source
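Wherever Hepatotoxicity (association with vascular disease) is given: count of indexed literature references reporting vascular liver injury in humans, e.g. peliosis hepatitis, hepatic veno-occlusive disease or Budd-Chiari syndrome.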
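Wherever Hepatotoxicity (benign tumour) is given: value is a count of indexed literature references citing a benign tumour confirmed by histopathology.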
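Wherever Hepatotoxicity (choleostasis) is given: human cholestatic liver injury, shown by histopathology or by peak ALT or AST elevation over alkaline phosphatase ratio below 2, value counts indexed literature reports.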
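Wherever Hepatotoxicity (chronic liver disease) is given: chronic liver injury confirmed by histopathology or persistently raised serum aminotransferase activity beyond 6 months, value given as the count of indexed literature references.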
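Wherever Hepatotoxicity (cirrhosis) is given: value is a count of indexed literature references reporting cirrhosis confirmed by histopathology.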
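Wherever Hepatotoxicity (cytolytic) is given: human cytolytic liver injury, shown by histopathology or by a ratio above 5 of peak ALT or AST elevation to alkaline phosphatase elevation, value counts indexed references.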
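Wherever Hepatotoxicity (granulomatous hepatitis) is given: value is a count of indexed literature references reporting granulomatous liver disease confirmed by histopathology.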
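Wherever Hepatotoxicity (malignant tumour) is given: malignant tumour confirmed by histopathology, value gives the count of indexed literature references reporting it.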
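Wherever Hepatotoxicity (severe hepatitis) is given: human clinical data: severe hepatitis, meaning potentially life-threatening liver failure or clinically observed cases, the value counts how many indexed literature references report it.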
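Wherever Hepatotoxicity (steatosis) is given: steatosis confirmed by histopathology, value is the count of indexed references.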

SMILES	Hepatotoxicity (moderate) [1] [%]	Hepatotoxicity (acute) [2] [%]	Hepatotoxicity (moderate) [3]	Hepatotoxicity (acute) [4]	Hepatotoxicity (cytolytic) [5]	Hepatotoxicity (choleostasis) [6]	Hepatotoxicity (severe hepatitis) [7]	Hepatotoxicity (chronic liver disease) [8]	Hepatotoxicity (cirrhosis) [9]	Hepatotoxicity (granulomatous hepatitis) [10]	Hepatotoxicity (association with vascular disease) [11]	Hepatotoxicity (steatosis) [12]	Hepatotoxicity (malignant tumour) [13]	Hepatotoxicity (benign tumour) [14]
Cc1ncc(CNC(=O)N(CCCl)N=O)c(N)n1 [NIMUSTINE]	3.6	0	2	0	0	0	0	0	0	0	0	0	0	0
O=C1NCCN1c1ncc([N+](=O)[O-])s1 [NIRIDAZOLE]	0	0	2	0	0	0	0	0	0	0	0	0	0	0
COC(=O)C1=C(C)NC(C)=C(C(=O)OCC(C)C)C1c1ccccc1[N+](=O)[O-] (centres undefined) [NISOLDIPINE]	12.5	0	1	0	0	0	0	0	0	0	0	0	0	0
C[C@]1(O)CC[C@H]2[C@@H]3CCC4=CC(=O)CC[C@@H]4[C@H]3CC[C@@]21C [NORMETHANDRONE]	0	0	0	2	0	1	0	0	0	0	0	0	0	0
COC(=O)C[C@](O)(CCCC(C)(C)O)C(=O)O[C@@H]1C(OC)=C[C@]23CCCN2CCc2cc4c(cc2[C@H]13)OCO4 [OMACETAXINE MEPESUCCINATE]	15	0	3	0	0	0	0	0	0	0	0	0	0	0
CCOC(=O)C1=C[C@@H](OC(CC)CC)[C@H](NC(C)=O)[C@@H](N)C1 [OSELTAMIVIR]	0	0	0	1	0	0	0	0	0	0	0	0	0	0
O=C(O)C(=O)O [OXALIC ACID]	0	0	1	0	0	0	0	0	0	0	0	0	0	0
CC(C)NCC1CCc2cc(CO)c([N+](=O)[O-])cc2N1 (centres undefined) [OXAMNIQUINE]	0	0	3	0	0	0	0	0	0	0	0	0	0	0
COc1cc2[nH]c(C)c(CCN3CCN(c4ccccc4)CC3)c2cc1OC [OXYPERTINE]	0	0	1	0	0	0	0	0	0	0	0	0	0	0
NCCC(O)(P(=O)(O)O)P(=O)(O)O [PAMIDRONIC ACID]	2.7	0	3	0	0	0	0	0	0	0	0	0	0	0
CCC(=O)NS(=O)(=O)c1ccc(-c2c(-c3ccccc3)noc2C)cc1 [PARECOXIB]	6.5	0	1	0	0	0	0	0	0	0	0	0	0	0
C[C@H]1COc2c(C3(N)CC3)c(F)cc3c(=O)c(C(=O)O)cn1c23 [PAZUFLOXACIN]	11.1	0	31	0	0	0	0	0	0	0	0	0	0	0
CNc1nc(N(C)C)nc(N(C)C)n1 [PENTAMETHYL MELAMINE]	31	0	1	0	0	0	0	0	0	0	0	0	0	0
CCCN1C[C@H](CSC)C[C@@H]2c3cccc4[nH]cc(c34)C[C@H]21 [PERGOLIDE]	1.9	0	3	0	0	0	0	0	0	0	0	0	0	0
CCC(C(=O)NC(N)=O)c1ccccc1 (centres undefined) [PHENETURIDE]	0	0	1	0	0	0	0	0	0	0	0	0	0	0
O=C(O)c1ccccc1C(=O)Nc1ccc(S(=O)(=O)Nc2nccs2)cc1 [PHTHALYLSULFATHIAZOLE]	0	0	0	1	0	0	0	0	0	0	0	0	0	0
